Data as given in patent US20160022818A1, “PHARMACEUTICAL FORMULATION COMPRISING LIPASE INHIBITOR HAVING INCREASED DISSOLUTION RATE AND REDUCED SIDE EFFECTS, AND METHOD FOR PREPARING SAME” (UNIVERSITY-INDUSTRY FOUNDATION, YONSEI UNIVERSITY, priority 2013, published 2016).

Tests used:
[1] = tested on: triglyceride levels in blood; assay: Measurement of triglyceride levels in blood by using SD-rat model; assay type: in vivo; conditions: SD-rats, oral 2.5 mg orlistat per kg
Method: Using 7-week old SD-rats (Samtaco Bio Korea Inc.), 1 ml of an olive oil (Samchun Pure Chemical Co., Ltd., Korea) was administered to each group and a drug suspended in a 0.25% HPMC (hydroxypropylmethyl cellulose) solution (Shin-Etsu chemical, Japan) was orally administered to the rats (corresponds to 2.5 mg of orlistat per kg of the body weight). The control group was administered with distilled water instead of the drug suspension. The blood of rats was collected for a fixed time interval, the triglyceride levels in the blood were measured by Cleantech TG-S of Asan Pharmaceutical, and, with the triglyceride level in the blood before testing used as a standard, changes in triglyceride levels in the blood after administration of an olive oil and drugs were plotted in FIG. 4 and Table 4.

[2] = Oily leakage test using SD-rat model; assay type: in vivo; conditions: of 26 SD-rats; 0.5 ml olive oil, oral 5 mg orlistat per kg, 6 hours later
Method: 7-week old SD-rats were used, 0.5 ml of an olive oil was administered for each group, and a drug was suspended in a 0.25% HPMC solution to be orally administered to the rats (corresponds to 5 mg of orlistat per kg of the body weight). 6 hours later, the evaluation was assessed through the number of rats having oily leakage from their anuses.

[3] = Comparative dissolution test; assay type: physicochemical; conditions: 900 ml 1% sodium lauryl sulfate, paddle 75 rpm, HPLC-UV
Method: A comparative dissolution test was performed on the compositions prepared by Examples 1 to 3 and on the compositions prepared by Comparative Examples 1 and 2.

- Population having oily leakage [2]: 17 rats
- Dissolution rate at 10 minutes ([3]; Table 1): 7.0%
- Dissolution rate at 10 minutes ([3]; Table 3, various porous adsorbents): 7.0%
SMILES: CCCCCCCCCCC[C@@H](C[C@@H]1OC(=O)[C@H]1CCCCCC)OC(=O)[C@H](CC(C)C)NC=O [Comparative Example 1, orlistat]
- AUC0->12 h (triglyceride level in blood) ([1]; 1 ml olive oil): 648.0 ± 203.2 mg·h/dL
- Cmax (triglyceride level in blood) ([1]; 1 ml olive oil): 140.7 ± 64.1 mg/dL
- Triglyceride level in blood (words, FIG. 4) ([1]; olive oil): did not show an increase
